# What was measured:
# [1] = Inhibition of cAMP phosphodiesterase preparation from rabbit lung at a substrate concentration of 0.14 uM
# Phosphodiesterase 4 = Phosphodiesterase 4 (Homo sapiens, UniProt P27815+Q08499+Q07343+Q08493); settings: Oryctolagus cuniculus; Kidney
# Description: Susceptibility to be hydrolysed by a partially purified cAMP phosphodiesterase from rabbit kidney
SMILES,I50 [1] [µM],Hydrolysis (Phosphodiesterase 4)
CCN(CC)c1ncnc2c1nc(Cl)n2[C@@H]1O[C@@H]2COP(=O)(O)O[C@H]2[C@H]1O,18,0.1
COc1ccc(Sc2nc3c(N)ncnc3n2[C@@H]2O[C@@H]3COP(=O)(O)O[C@H]3[C@H]2O)cc1,48,< 0.05
Nc1ncnc2c1nc(SCc1ccc(Cl)cc1)n2[C@@H]1O[C@@H]2COP(=O)(O)O[C@H]2[C@H]1O,11,< 0.05
CCCCNc1ncnc2c1nc(SC)n2[C@@H]1O[C@@H]2COP(=O)(O)O[C@H]2[C@H]1O,53,0.26
CCN(CC)c1ncnc2c1nc(Sc1ccc(Cl)cc1)n2[C@@H]1O[C@@H]2COP(=O)(O)O[C@H]2[C@H]1O,3.5,< 0.05
Nc1ncnc2c1nc(Sc1ccc(Br)cc1)n2[C@@H]1O[C@@H]2COP(=O)(O)O[C@H]2[C@H]1O,240,< 0.05
Nc1ncnc2c1nc(SCc1ccccc1)n2[C@@H]1O[C@@H]2COP(=O)(O)O[C@H]2[C@H]1O,53,< 0.05
O=P1(O)OC[C@H]2O[C@@H](n3cnc4c(SCc5ccccc5)ncnc43)[C@H](O)[C@@H]2O1,25,0.54
O=P1(O)OC[C@H]2O[C@@H](n3c(Br)nc4c(NCc5ccccc5)ncnc43)[C@H](O)[C@@H]2O1,61,< 0.05
O=P1(O)OC[C@H]2O[C@@H](n3c(SCc4ccccc4)nc4c(N5CCCC5)ncnc43)[C@H](O)[C@@H]2O1,5,< 0.05
COc1ccc(CSc2nc3c(N)ncnc3n2[C@@H]2O[C@@H]3COP(=O)(O)O[C@H]3[C@H]2O)cc1,30,< 0.05
Cc1ccc(CSc2nc3c(N)ncnc3n2[C@@H]2O[C@@H]3COP(=O)(O)O[C@H]3[C@H]2O)cc1,13,< 0.05
O=P1(O)OC[C@H]2O[C@@H](n3c(Sc4ccc(Cl)cc4)nc4c(Nc5ccccc5)ncnc43)[C@H](O)[C@@H]2O1,36,< 0.05
CCCN(CCC)c1ncnc2c1nc(SCc1ccccc1)n2[C@@H]1O[C@@H]2COP(=O)(O)O[C@H]2[C@H]1O,–,< 0.05
CCCCNc1ncnc2c1nc(Sc1ccc(Cl)cc1)n2[C@@H]1O[C@@H]2COP(=O)(O)O[C@H]2[C@H]1O,–,< 0.05
Nc1ncnc2c1nc(Sc1ccc(Cl)cc1)n2[C@@H]1O[C@@H]2COP(=O)(O)O[C@H]2[C@H]1O,–,< 0.05
CCCCN(C)c1ncnc2c1nc(SCc1ccccc1)n2[C@@H]1O[C@@H]2COP(=O)(O)O[C@H]2[C@H]1O,–,< 0.05

# Next, values leading:
I50 [1] [µM],Hydrolysis (Phosphodiesterase 4),SMILES
25,< 0.05,CCCCSc1nc2c(N)ncnc2n1[C@@H]1O[C@@H]2COP(=O)(O)O[C@H]2[C@H]1O
200,0.74,Nc1nc2c(Cl)ncnc2n1[C@@H]1O[C@@H]2COP(=O)(O)O[C@H]2[C@H]1O
> 400,< 0.05,O=c1[nH]c2c(Cl)ncnc2n1[C@@H]1O[C@@H]2COP(=O)(O)O[C@H]2[C@H]1O
53,1.1,O=P1(O)OC[C@H]2O[C@@H](n3cnc4c(=S)[nH]cnc43)[C@H](O)[C@@H]2O1
83,0.3,Nc1nc2c(=S)[nH]cnc2n1[C@@H]1O[C@@H]2COP(=O)(O)O[C@H]2[C@H]1O
37,< 0.05,CCCSc1nc2c(N)ncnc2n1[C@@H]1O[C@@H]2COP(=O)(O)O[C@H]2[C@H]1O
50,< 0.05,CSc1ncnc2c1nc(SC)n2[C@@H]1O[C@@H]2COP(=O)(O)O[C@H]2[C@H]1O
20,< 0.05,Nc1ncnc2c1nc(S)n2[C@@H]1O[C@@H]2COP(=O)(O)O[C@H]2[C@H]1O
–,< 0.05,Nc1ncnc2c1nc(Br)n2[C@@H]1O[C@@H]2COP(=O)(O)O[C@H]2[C@H]1O
–,< 0.05,CCCCNc1ncnc2c1nc(Br)n2[C@@H]1O[C@@H]2COP(=O)(O)O[C@H]2[C@H]1O
